We go through 20 compounds from patent US6969697B2, “Substituted benzoylcyclohexenones” (Bayer Aktiengesellschaft, priority 2000, dated 2005).

Series [1] deals with weeds. The series can be described thus: Post-emergence test (Example B), herbicidal activity. Format: in vivo. The note with it: test plants 5-15 cm sprayed, rated after three weeks. The method, then: (§1) • Solvent: 5 parts by weight of acetone • Emulsifier: 1 part by weight of alkilaryl polyglycol ether
(§2) To produce a suitable preparation of active compound, 1 part by weight of active compound is mixed with the stated amount of solvent, the stated amount of emulsifier is added and the concentrate is diluted with water to the desired concentration.
(§3) Test plants of a height of 5-15 cm are sprayed with the preparation of active compound such that the particular amounts of active compound desired are applied per unit area. The concentration of the spray liquor is chosen such that the particular amounts of active compound desired are applied in 1000 l of water/ha.
(§4) After three weeks, the degree of damage to the plants is rated in % damage in comparison to the development of the untreated control.
(§5) The figures denote: • 0%=no effect (like untreated control) • 100%=total destruction

For a further series, the system named is wheat. The series is described as follows: Post-emergence test (Example B), crop plant tolerance, wheat. It counts as in vivo. The settings on record: rated after three weeks. As to the method:
as §1, §2, §3, §4, §5

Series [2] concerns maize. The series is described as follows: Post-emergence test (Example B), crop plant tolerance, maize. The note with it: rated after three weeks. It counts as in vivo. As to the method:
as §1, §2, §3, §4, §5

Series [3] is described as follows: logP by reversed-phase HPLC (EEC Directive 79/831 Annex V.A8), acidic range. It counts as physicochemical. The settings on record: reversed-phase column (C 18), 43° C.; a) acidic range: 0.1% aqueous phosphoric acid, acetonitrile, linear gradient 10% to 90%. The method, then:
The logP values given in Table 1 were determined in accordance with EEC Directive 79/831 Annex V.A8 by HPLC (High Performance Liquid Chromatography) using a reversed-phase column (C 18). Temperature: 43° C. • (a) Mobile phases for the determination in the acidic range: 0.1% aqueous phosphoric acid, acetonitrile; linear gradient from 10% acetonitrile to 90% acetonitrile—the corresponding data are labelled ^a) in Table 1. • (b) Mobile phases for the determination in the neutral range: 0.01 molar aqueous phosphate buffer solution, acetonitrile; linear gradient from 10% acetonitrile to 90% acetonitrile—corresponding data are labelled ^b) in Table 1.
Calibration was carried out using unbranched alkan-2-ones (having 3 to 16 carbon atoms), with known logP values (determination of the logP values by the retention times using linear interpolation between two successive alkanones).

Series [4] concerns maize. The series can be described thus: Pre-emergence test (Example A), crop plant tolerance. The note with it: rated after three weeks. It counts as in vivo. The method, then: as §1, §2
(§6) Seeds of the test plants are sown in normal soil. After 24 hours, the soil is sprayed with the preparation of active compound such that the particular amount of active compound desired is applied per unit area. The concentration of active compound in the spray liquor is chosen such that the particular amount of active compound desired is applied in 1000 litres of water per hectare.
(§7) After three weeks, the degree of damage to the plants is rated in % damage in comparison to the development of the untreated control. The figures denote: • 0%=no effect (like untreated control) • 100%=total destruction

For series [5], the system named is weeds. The series is described as follows: Pre-emergence test (Example A), herbicidal activity. Format: in vivo. The note with it: soil sprayed 24 hours after sowing, rated after three weeks. As to the method:
as §1, §2, §6, §7

Molecules are shown by their SMILES.

What is called melting point is the temperature, or range, at which the solid turns liquid. `CN1CCCN(Cc2c(Cl)ccc(C(=O)C3=C(Sc4ccccc4)CCCC3=O)c2Cl)C1=O` [Example 1, 1-[2,6-dichloro-3-[(6-oxo-2-phenylthio-1-cyclohexen-1-yl)-carbonyl]-benzyl]-3-methyl-tetrahydro-2(1H)-pyrimidinone] showed a melting point of 140 °C. The “activity against weeds (degree of damage)” value (shortened to “activity against weeds”) in the series on weeds [1] was “strong activity against weeds”. Also, the “tolerance by crop plants” value with wheat is listed as “tolerated well”. In addition, in the series on maize [2], the “tolerance by crop plants” value is “tolerated well”.
With `CN1CCN(Cc2c(Cl)ccc(C(=O)C3=C(Sc4ccccc4)CCCC3=O)c2Cl)C1=O` [Example 2], in the series on weeds [1], the “activity against weeds” value is “strong activity against weeds”. The logP result in series [3] is listed as “logP = 3.02^a)”. Further, the “tolerance by crop plants” value in the series with wheat and in the series with maize [2] was “tolerated well” each time.
`CCN1CCN(Cc2c(Cl)ccc(C(=O)C3=C(Sc4ccccc4)CCCC3=O)c2Cl)C1=O` [Example 3]: the logP entry in series [3] was “logP = 3.30^a)”.
On the same count and under the same terms, the entry for `CSc1nn(Cc2c(Cl)ccc(C(=O)C3=C(Sc4ccccc4)CCCC3=O)c2Cl)c(=O)n1C` [Example 4] is “logP = 3.29^a)”.
`O=C1CCCC(Sc2ccccc2)=C1C(=O)c1ccc(Cl)c(Cn2nc(C3CC3)n(C3CC3)c2=O)c1Cl` [Example 5]: in the series with weeds [1], the “activity against weeds” value is “strong activity against weeds”. The logP result in series [3] is recorded as “logP = 3.50^a)”. The “tolerance by crop plants” value in the series on wheat and with maize [2] was “tolerated well” each time.
As for `CSc1nn(Cc2c(S(C)(=O)=O)ccc(C(=O)C3=C(Sc4ccccc4)CCCC3=O)c2Cl)c(=O)n1C` [Example 6], the logP entry in series [3] is on record as “logP = 2.84^a)”.
Still for that read-out and setting: then `COc1nn(Cc2c(S(C)(=O)=O)ccc(C(=O)C3=C(Sc4ccccc4)CCCC3=O)c2Cl)c(=O)n1C` [Example 7], with “logP = 2.67^a)”; and `CN1CCN(Cc2c(S(C)(=O)=O)ccc(C(=O)C3=C(Sc4ccccc4)CCCC3=O)c2Cl)C1=O` [Example 8], with “logP = 2.56^a)”; and `CCN1CCN(Cc2c(S(C)(=O)=O)ccc(C(=O)C3=C(Sc4ccccc4)CCCC3=O)c2Cl)C1=O` [Example 9], with “logP = 2.79^a)”.
Same read-out and setting: then `CCOn1c(CC)nn(Cc2c(S(C)(=O)=O)ccc(C(=O)C3=C(Sc4ccccc4)CCCC3=O)c2Cl)c1=O` [Example 10], with “logP = 3.13^a)”.
In the case of `COc1nn(Cc2c(Cl)ccc(C(=O)C3=C(Sc4ccccc4)CCCC3=O)c2Cl)c(=O)n1C` [Example 11], in series [3], the logP result is “logP = 3.06^a)”.
As for `CC(C)Oc1nn(Cc2c(Cl)ccc(C(=O)C3=C(Sc4ccccc4)CCCC3=O)c2Cl)c(=O)n1C` [Example 12], in series [3], the logP result is “logP = 3.69^a)”.
In the case of `CN(C)c1nn(Cc2c(Cl)ccc(C(=O)C3=C(Sc4ccccc4)CCCC3=O)c2Cl)c(=O)n1C` [Example 13], in series [3], the logP entry is listed as “logP = 3.10^a)”.
Still for that read-out and setting: then `COc1nn(Cc2c(Cl)ccc(C(=O)C3=C(S(=O)(=O)c4ccccc4)CCCC3=O)c2Cl)c(=O)n1C` [Example 14], with “logP = 2.62^a)”.
For the compound `CSc1nn(Cc2cc(C(F)(F)F)ccc2C(=O)C2=C(Sc3ccccc3)CCCC2=O)c(=O)n1C` [Example 16], the “tolerance by crop plants” value in the series on maize [4], in the series with wheat and in the series with maize [2] was “tolerated well” throughout. The “activity against weeds” value in the series on weeds [1] and with weeds [5] was “strong activity against weeds” throughout. In addition, the logP result in series [3] is reported as “logP = 3.58^a)”.
Take `CSC1=C(C(=O)c2ccc(C(F)(F)F)cc2Cn2nc(SC)n(C)c2=O)C(=O)CCC1` [Example 17]: the “activity against weeds” value in the series on weeds [1] is listed as “strong activity against weeds”. The logP entry in series [3] is “logP = 2.63^a)”. Further, the “tolerance by crop plants” value in the series with wheat and in the series on maize [2] was “tolerated well” each time.
Consider `COc1nn(Cc2cc(C(F)(F)F)ccc2C(=O)C2=C(Sc3ccccc3)CCCC2=O)c(=O)n1C` [Example 18], for which, in the series with weeds [1], the “activity against weeds” value is given as “strong activity against weeds”. In addition, the logP result in series [3] is “logP = 3.30^a)”. The “tolerance by crop plants” value in the series on wheat and in the series on maize [2] was “tolerated well” each time.
For `COc1nn(Cc2cc(C(F)(F)F)ccc2C(=O)C2=C(SC)CCCC2=O)c(=O)n1C` [Example 19], the “activity against weeds” value in the series on weeds [1] is recorded as “strong activity against weeds”. Also, in series [3], the logP result was “logP = 2.41^a)”. In addition, the “tolerance by crop plants” value in the series with wheat and in the series with maize [2] was “tolerated well” throughout.
For the compound `CCCCN1CCN(Cc2c(Cl)ccc(C(=O)C3=C(Sc4ccccc4)CCCC3=O)c2Cl)C1=O` [Example 120], the logP entry in series [3] was “logP = 4.02^a)”.
As to `CC(C)CN1CCN(Cc2c(Cl)ccc(C(=O)C3=C(Sc4ccccc4)CCCC3=O)c2Cl)C1=O` [Example 121], the logP result in series [3] is reported as “logP = 3.98^a)”.
